# Like-named read-outs stand apart in the source and are kept apart here.
# What was measured:
# S. epidermidis NRS 101 = assay: MIC and MBC against S. epidermidis (CLSI); format: cell-based; conditions: Staphylococcus epidermidis, NRS101
# [1] = test system: mitochondrial protein synthesis in J774A.1 cells; assay: Mitochondrial biogenesis in-cell ELISA (COX-I / SDH-A); format: cell-based; conditions: J774A.1 cells treated for three days
# Description: Due to concern about the possible mitochondrial toxicities associated with many antibacterial protein synthesis inhibitors such as linezolid and chloramphenicol, we tested the effect of Auranofin and Ebselen on mitochondrial protein synthesis directly within the mammalian cells.
# [2] = test system: E. fecalis ATCC 51229 (VRE); assay: MIC and MBC against E. fecalis VRE (CLSI); format: cell-based; conditions: Enterococcus
# Experimental: The NIH Clinical Collections 1 and 2 (http://www.nihclinicalcollection.com) containing 727 FDA approved drugs and small molecules previously used in human clinical trials with known safety profiles were screened against ESKAPE pathogens. The library was initially screened at a single concentration of 16 μM to identify “hit” non-antibacterial drugs. Once the antimicrobial activity of the drugs was confirmed, we determined their MICs and minimum bactericidal concentrations (MBCs) according to the Clinical and Laboratory Standards Institute (CLSI).
# [3] = test system: Colistin resistant clinical isolates of P. aeruginosa; assay: MIC against G-ve with and without colistin: colistin resistant P. aeruginosa; format: cell-based; conditions: without colistin
# [4] = test system: E. faecium ATCC 700221 (VRE); assay: MIC and MBC against E. faecium VRE (CLSI), Table 1; format: cell-based; conditions: Enterococcus faecium
# [5] = test system: Vancomycin-resistant S. aureus (VRSA); assay: MIC and MBC against vancomycin-resistant S. aureus clinical isolates (CLSI); format: cell-based
# [6] = test system: vancomycin resistant E. faecium ATCC 700221 (VRE); assay: Library hits: MIC/MBC against VRE; format: cell-based; conditions: VRE
# MRSA USA300 = assay: Library hits: MIC/MBC against MRSA; format: cell-based, Staphylococcus aureus; conditions: Staphylococcus aureus
# [7] = test system: clinical isolates of S. aureus; assay: MIC90 over clinical isolates of S. aureus; format: cell-based; conditions: Staphylococcus aureus, Table 1, read-out: MIC90 (MIC at which 90% of clinical isolates of S. aureus were inhibited)
# MRSA USA200 = format: in vivo, BALB/c mice; conditions: oral, EB 30 mg/kg or FdUrd 25 mg/kg once daily for three days, monitored six days
# Experimental: Animal procedures were approved by the Purdue University Animal Care and Use Committee (PACUC) (protocol no. 1311000988). Eight-week-old female BALB/c mice (Harlan Laboratories, Indianapolis, Ind.) were used for this study. Mice were rendered neutropenic by treatment with cyclophosphamide intraperitoneally (IP) 150 and 100 mg/kg at four days and one day before infection, respectively. Neutropenic mice were inoculated IP with 8×10^8 MRSA USA200. At one hour after infection, the mice were divided into five groups (n=10 per group), and two groups were treated orally with either EB 30 mg/kg or FdUrd 25 mg/kg. Two groups were treated IP with either EB 30 mg/kg or FdUrd 25 mg/kg. One group was used as a control with no treatment. Treatment was continued once daily for two more days (animals received three doses total). Mortality was monitored four times daily for six days, and the cumulative percent survival was determined. The data were subjected to statistical analysis using Kaplan-Meier survival curves. A log rank test was performed for 95% confidence intervals by GraphPad Prism 6.0 (GraphPad Software, La Jolla, Calif.).
# [8] = test system: Methicillin resistant S. aureus (MRSA); assay: MIC and MBC against methicillin resistant S. aureus clinical isolates (CLSI); format: cell-based; conditions: Staphylococcus aureus
# [9] = test system: Methicillin-sensitive S. aureus (MSSA); assay: MIC and MBC against methicillin-sensitive S. aureus isolates (CLSI); format: cell-based; conditions: Staphylococcus aureus
# [10] = test system: Vancomycin-intermediate S. aureus (VISA); assay: MIC and MBC against vancomycin-intermediate S. aureus isolates (CLSI); format: cell-based; conditions: Staphylococcus aureus
compound,measurement,setting,value
O=c1c2ccccc2[se]n1-c1ccccc1 [Ebselen],MBC,S. epidermidis NRS 101,0.5 µg/mL
same,MIC,S. epidermidis NRS 101,0.5 µg/mL
same,inhibition of mitobiogenesis,[1],less than 10%
same,MBC,[2],0.5 µg/mL
same,MIC,[2],0.5 µg/mL
same,"MIC, colistin (−)",[3],>256 µg/mL
same,MBC,[4],1 µg/mL
same,MIC,[4],0.5 µg/mL
same,MIC,"[5]; Staphylococcus aureus, VRSA",0.125 µg/mL
same,MBC,"[5]; Staphylococcus aureus, VRSA, VRSA1, read-out: MBC",0.25 µg/mL
same,MIC,"[5]; Staphylococcus aureus, VRSA, VRSA1, read-out: MIC",0.25 µg/mL
same,MBC,"[5]; Staphylococcus aureus, VRSA, VRSA2, read-out: MBC",0.25 µg/mL
same,MIC,"[5]; Staphylococcus aureus, VRSA, VRSA2, read-out: MIC",0.25 µg/mL
same,MBC,"[5]; Staphylococcus aureus, VRSA, VRSA3a, read-out: MBC",0.25 µg/mL
same,MIC,"[5]; Staphylococcus aureus, VRSA, VRSA3a, read-out: MIC",0.25 µg/mL
same,MBC,"[5]; Staphylococcus aureus, VRSA, VRSA3b, read-out: MBC",1 µg/mL
same,MIC,"[5]; Staphylococcus aureus, VRSA, VRSA3b, read-out: MIC",0.25 µg/mL
same,MBC,"[5]; Staphylococcus aureus, VRSA, VRSA4",0.125 µg/mL
same,MBC,"[5]; Staphylococcus aureus, VRSA, VRSA5, read-out: MBC",0.25 µg/mL
same,MIC,"[5]; Staphylococcus aureus, VRSA, VRSA5, read-out: MIC",0.25 µg/mL
same,MBC,"[5]; Staphylococcus aureus, VRSA, VRSA6, read-out: MBC",0.5 µg/mL
same,MIC,"[5]; Staphylococcus aureus, VRSA, VRSA6, read-out: MIC",0.25 µg/mL
same,MBC,"[5]; Staphylococcus aureus, VRSA, VRSA7, read-out: MBC",0.5 µg/mL
same,MIC,"[5]; Staphylococcus aureus, VRSA, VRSA7, read-out: MIC",0.5 µg/mL
same,MBC,"[5]; Staphylococcus aureus, VRSA, VRSA8",0.125 µg/mL
same,MBC,"[5]; Staphylococcus aureus, VRSA, VRSA9, read-out: MBC",0.5 µg/mL
same,MIC,"[5]; Staphylococcus aureus, VRSA, VRSA9, read-out: MIC",0.25 µg/mL
same,MBC,"[5]; Staphylococcus aureus, VRSA, VRSA10, read-out: MBC",0.25 µg/mL
same,MIC,"[5]; Staphylococcus aureus, VRSA, VRSA10, read-out: MIC",0.25 µg/mL
same,MBC,"[5]; Staphylococcus aureus, VRSA, VRSA11b, read-out: MBC",0.25 µg/mL
same,MIC,"[5]; Staphylococcus aureus, VRSA, VRSA11b, read-out: MIC",0.25 µg/mL
same,MBC,"[5]; Staphylococcus aureus, VRSA, VRSA12, read-out: MBC",0.5 µg/mL
same,MIC,"[5]; Staphylococcus aureus, VRSA, VRSA12, read-out: MIC",0.25 µg/mL
same,MBC,"[5]; Staphylococcus aureus, VRSA, VRSA13, read-out: MBC",0.25 µg/mL
same,MIC,"[5]; Staphylococcus aureus, VRSA, VRSA13, read-out: MIC",0.25 µg/mL
same,MIC,[5]; VRSA8,0.125/0.125 mg/L
same,MIC,[5]; VRSA11a,0.125 µg/mL
same,MBC,[6],1 µM
same,MIC,[6]; read-out: MIC,0.5 µM
same,MBC,MRSA USA300; read-out: MBC,0.5 µM
same,MIC,MRSA USA300; read-out: MIC,< 0.5 µM
same,MIC90,[7],0.25 µg/mL
same,mice survival compared to that of control,MRSA USA200,60%
same,MBC,"[8]; MRSA / NRS 70, read-out: MBC",0.25 µg/mL
same,MIC,"[8]; MRSA / NRS 70, read-out: MIC",0.25 µg/mL
same,MBC,"[8]; MRSA / NRS 71, read-out: MBC",0.25 µg/mL
same,MIC,"[8]; MRSA / NRS 71, read-out: MIC",0.25 µg/mL
same,MBC,"[8]; MRSA / NRS 100, read-out: MBC",0.5 µg/mL
same,MIC,"[8]; MRSA / NRS 100, read-out: MIC",0.25 µg/mL
same,MBC,"[8]; MRSA / NRS 108, read-out: MBC",0.25 µg/mL
same,MIC,"[8]; MRSA / NRS 108, read-out: MIC",0.25 µg/mL
same,MBC,[8]; MRSA / NRS 119,0.25 µg/mL
same,MIC,[8]; MRSA / NRS 119,0.125 µg/mL
same,MBC,"[8]; MRSA / NRS 123, read-out: MBC",0.5 µg/mL
same,MIC,"[8]; MRSA / NRS 123, read-out: MIC",0.25 µg/mL
same,MBC,"[8]; MRSA / NRS 194, read-out: MBC",1 µg/mL
same,MIC,"[8]; MRSA / NRS 194, read-out: MIC",0.25 µg/mL
same,MBC,[8]; MRSA / NRS 382,0.125 µg/mL
same,MIC,[8]; MRSA / NRS 382,0.125 µg/mL
same,MBC,[8]; MRSA / NRS 383,0.125 µg/mL
same,MIC,[8]; MRSA / NRS 383,0.125 µg/mL
same,MBC,[8]; MRSA / NRS 384,0.125 µg/mL
same,MIC,[8]; MRSA / NRS 384,0.125 µg/mL
same,MBC,"[8]; MRSA / NRS 385, NRS 385, read-out: MBC",1 µg/mL
same,MIC,"[8]; MRSA / NRS 385, NRS 385, read-out: MIC",0.5 µg/mL
same,MBC,[8]; MRSA / NRS 386,1 µg/mL
same,MIC,[8]; MRSA / NRS 386,0.125 µg/mL
same,MBC,[8]; MRSA / NRS 387,0.25 µg/mL
same,MIC,[8]; MRSA / NRS 387,0.125 µg/mL
same,MBC,[8]; MRSA / NRS 483,0.5 µg/mL
same,MIC,[8]; MRSA / NRS 483,0.125 µg/mL
same,MBC,"[8]; MRSA / NRS 484, NRS 484, read-out: MBC",0.25 µg/mL
same,MIC,"[8]; MRSA / NRS 484, NRS 484, read-out: MIC",0.25 µg/mL
same,MBC,"[9]; MSSA / NRS 72, read-out: MBC",0.5 µg/mL
same,MIC,"[9]; MSSA / NRS 72, read-out: MIC",0.25 µg/mL
same,MBC,"[9]; MSSA / NRS 77, read-out: MBC",1 µg/mL
same,MIC,"[9]; MSSA / NRS 77, read-out: MIC",0.25 µg/mL
same,MBC,[9]; MSSA / NRS 846,> 64 µg/mL
same,MIC,[9]; MSSA / NRS 846,0.125 µg/mL
same,MBC,"[9]; MSSA / NRS 860, read-out: MBC",0.25 µg/mL
same,MIC,"[9]; MSSA / NRS 860, read-out: MIC",0.25 µg/mL
same,MBC,[10]; NRS 1 / VISA,0.125 µg/mL
same,MIC,[10]; NRS 1 / VISA,0.125 µg/mL
same,MBC,[10]; NRS 37 / VISA,0.125 µg/mL
same,MIC,[10]; NRS 37 / VISA,0.125 µg/mL
